Reference: patent US3985732A, “1,2,3,11A-Tetrahydro-10-methyl-5H-pyrrolo[2,1-c][1,4]ben zodiazepin-5,11(10H)-diones” (American Cyanamid Company, priority 1975, dated 1976)

Test system: clonic seizures caused by pentylenetetrazole in rats
Test: Protection against clonic seizures caused by pentylenetetrazole in rats (oral)
Format: in vivo, rat
Conditions: for effectiveness as anxiolytic agents versus closest prior art compound (respective dextrorotatory and racemic forms without 10-methyl): pentylenetetrazole test in rats, compared with Compounds 4 and 5
Description: The anti-anxiety properties of the compounds of the present invention have been established in a test which indicates anxiolytic activity by a measure of protection from convulsions resulting from the administration of pentylenetetrazol. Graded dose levels of the dextro and racemic forms of the 1,2,3,11a-tetrahydro-10-methyl-5H-pyrrolo[2,1-c][1,4]benzodiazepin-5,11(10H)-diones are administered orally, in a 2% starch vehicle, to groups of at least 5 rats. At the estimated time of peak effect, the rats are treated intravenously with pentylenetetrazole at a dose of 21 to 23 mg/kg of body weight. This dose is estimated to cause clonic seizures in 99% of unprotected rats. The effective dose of the test compound for protection of 50% of the animals is calculated by the method of J. T. Litchfield and F. Wilcoxon, Journal of Pharmacology and Experimental Therapeutics, 96, 99 (1949). The results are given in the table which follows in comparison with Librium (chlordiazepoxide), Valium (diazepam) and the dextro and racemic forms of 1,2,3,11a-tetrahydro-5H-pyrrolo-[2,1-c] [1,4]benzodiazepin-5,11(10H)-dione (U.S. Pat. No. 3,732,212) all of which were tested in exactly the same manner. It has been reported [R. T. Hill and D. H. Tedeschi, "Animal Testing and Screening Procedures in Evaluating Psychotropic Drugs" in An Introduction to Psychopharmacology, Eds. R. R. Rech and K. E. Moore, Raven Press, New York, pp. 237-288 (1971)] that there is a high degree of correlation between antagonism of pentylenetetrazole seizures in rats and antianxiety effects in higher warm-blooded animals.

Compound	effectiveness as anxiolytic agents versus closest prior art compound (respective dextrorotatory and racemic forms without 10-methyl)	ED50 (Rattus norvegicus, 2% starch vehicle, at least 5 rats per group, pentylenetetrazole 21 to 23 mg/kg intravenously at estimated time of peak effect, Litchfield and Wilcoxon, read-out: Medium Effective Oral Dose ED50, protection against clonic seizures caused by pentylenetetrazole) [mg/kg]
CN1C(=O)C2CCCN2C(=O)c2ccccc21 (racemic) [Compound 3, Racemic (DL) 1,2,3,11a-Tetrahydro-10-methyl-5H-pyrrolo[2,1-c][1,4]benzodiazepin-5,11(10H)-dione]	far more effective	
CN1C(=O)[C@@H]2CCCN2C(=O)c2ccccc21 [Compound 2, Dextrorotatory 1,2,3,11a-Tetrahydro-10-methyl-5H-pyrrolo[2,1-c][1,4]benzodiazepin-5,11(10H)-dione]	far more effective	
CN1C(=O)[C@@H]2CCCN2C(=O)c2cc(F)ccc21 [Dextrorotatory 7-Fluoro-1,2,3,11a-tetrahydro-10-methyl-5H-pyrrolo[2,1-c][1,4]benzodiazepin-5,11(10H)-dione]	far more effective	4
